From US20190224260A1, “Metabolic Syndrome Inhibitor” (J-OIL MILLS, INC., priority 2016, published 2019)

System: rat primary visceral fat cells
Test: Cell test: fat droplet area (Oil Red O staining) in visceral fat cells
Type: cell-based
Details: test solution in DMSO diluted 1000-fold with medium; cultured 2+2 days; vs control group (DMSO); FIG. 15, p 0.01 or less
Experimental: 100 μL of dimethylsulfoxide (DMSO) was added to 4.147 mg of unsaponifiable matter, or 259.65 μL of dimethylsulfoxide (DMSO) was added to 1.0716 mg of the avenasterol fraction, and which was sonicated for 1 minute to obtain a test solution. The test solution of the unsaponifiable matter (avenasterol concentration: 1.41 mg/ml) was referred to as an unsaponifiable matter group, and the test solution of the avenasterol (avenasterol concentration: 3.60 mg/ml) was referred to as an avenasterol fraction group. Furthermore, a DMSO without the unsaponifiable matter nor the avenasterol fraction (control group) was prepared. Each test solution in each group was diluted 1000-fold with a medium described in the following “Cell test”, and sonicated for 1 minute to obtain a medium with the test solution. […]
The medium was removed, and the inside of the well was washed with 0.5 mL of phosphate buffered saline (PBS). […] The cells were microscopically observed at a magnification of 200 times, and visceral fat cells with stained fat droplets were recorded as images on a recording device of a computer.
Area values of the lipid droplets stained with the Oil Red O on the above-described images were measured using the image processing software ImageJ (1.48 v) (obtained from https://imagej.nih.gov/ij/). The cell test was carried out three times, and four images were recorded in each group for each cell test. […]

With Avenasterol the “fat accumulation in the fat cell (relative area value of fat droplets)” value was “significantly inhibited”.
